Results reported in patent US20120035206A1, “PREPARATION AND APPLICATION OF NOVEL ANTIBACTERIAL AND ANTICANCER COMPOUNDS AND THEIR DERIVATIVES” (priority 2009, published 2012).
Converted amounts (≈) assume the structure as drawn.

Columns and labels:
Format in all cases: cell-based
C. Krusei = experiment: In vitro antibacterial (antifungal) test, two-fold dilution MIC; settings: Pichia kudriavzevii, RPMI 1640, culture 2-7 days
Experimental: (§1) In vitro antibacterial experiments of 25 compounds as anti-bacterial and anti-cancer compounds in the patent were tested using 14 kinds of bacteria. Tested bacteria: C. albicans, C. tropicalis, C. neoformans, E. floccosum, M. gypseum, A. niger, S. schenekn, C. parapsilosis, C. glabrata, C. Krusei, Trichoderma, Gibberella, Setrosphaeria turcica, Fusarium Oxysporum Vasinfectum. (Bacteria were from the Dermatology Hospital of Chinese Academy of Medical Sciences, Nanjing, China.)
(§2) The Preparation of tested Bacteria solution was following: incubated Bacteria were added to 5 ml physiological saline, and then they were mashed and placed with ultrasound. The solution was fully mixed, and insoluble substances were removed. The treated solution was called the original bacterium solution. In the test, the bacteria concentration in the original bacterium solution was adjusted to […].
(§3) Tested Methods: the tested compounds were dissolved in dimethyl sulfoxide. and the solution was diluted with sterile distilled water. And the distilled solution was added to sterilized RPMI 1640 medium. The concentration of the compounds were adjusted to 256, 128, 64, 32, 16, 8, 4, 2, 1, 0.5, 0.25, 0.125 ug*ml-1. Then the adjusted solutions were inoculated with tested bacteria, and the tested systems were placed in the constant temperature oven to culture for 2-7 days. The concentration at which there was no growing of fungi was taken as the minimum inhibitory concentration (MIC).

C. albicans = experiment: as above; settings: Candida albicans, read-out: MIC C. albicas
Experimental: as §1, §2, §3

C. glabrata = experiment: as above; settings: Nakaseomyces glabratus, RPMI 1640, culture 2-7 days
Experimental: as §1, §2, §3

C. neoformans = experiment: as above; settings: Cryptococcus neoformans, RPMI 1640, culture 2-7 days
Experimental: as §1, §2, §3

C. parapsilosis = experiment: as above; settings: Lodderomyces parapsilosis, RPMI 1640, culture 2-7 days
Experimental: as §1, §2, §3

C. tropicalis = experiment: as above; settings: Candida tropicalis, RPMI 1640, culture 2-7 days
Experimental: as §1, §2, §3

E. floccosum = experiment: as above; settings: Epidermophyton floccosum, RPMI 1640, culture 2-7 days
Experimental: as §1, §2, §3

[1] = system: Fusarium oxysporum vasinfectum; experiment: as above; settings: RPMI 1640, culture 2-7 days
Experimental: as §1, §2, §3

M. gypseum = experiment: as above; settings: Nannizzia gypsea, RPMI 1640, culture 2-7 days
Experimental: as §1, §2, §3

S. schenekn = experiment: as above; settings: RPMI 1640, culture 2-7 days
Experimental: as §1, §2, §3

Setosphaeria turcica = experiment: as above; settings: Exserohilum turcicum, RPMI 1640, culture 2-7 days
Experimental: as §1, §2, §3

Terchoderma = experiment: as above; settings: Trichoderma, RPMI 1640, culture 2-7 days
Experimental: as §1, §2, §3

AS24391 = experiment: In vitro anticancer MTT experiment; settings: concentration 5 ug/ml, 48 h or 72 h, read-out: inhibition ratio AS24391
Experimental: (§4) In vitro anticancer experiments of 25 compounds as anti-bacterial and anti-cancer compounds in the patent were tested. In the test, 14 kinds of cancer cells were used as tested cancer cells. And the results obtained by MTT method were shown in table 2 (the inhibition ratio was obtained when the concentration was 5 ug/ml). Tested Cancer Cells: SGC7901, HTB-38HT-29, CRL-2233NU-398, CRL-1469PANC-1, B0192, HTB-131MDA-453, CRL-1435PC-3, FTC133, AS24391, HTB-95637. (Cancer cells were from Chinese Military Academy of Medical Sciences). Cells Culture: Culture solution was composed of RPMI 1640 medium, 10% (VAT) Fetal calf serum and 0.01% L-glutamine. Cultured cells were maintained at 37° C. in an incubator with 5% CO2. The cells at logarithmic growth phase were used in the experiment. MTT Experiment: Single cell suspension was obtained by digesting cells with 0.25% trypsin. The cells at logarithmic growth phase were collected and seeded in a 96-well plate at a concentration of 6000-7000 cells per well. After culturing for 12 h at 37° C. in the incubator with 5% CO2, the cells were again incubated with the tested compounds of various concentrations for 48 h or 72 h. Pure cultures and cells without drug were taken as blank reference and negative reference, and 8 Wells of each group were taken. Twenty microliter of MTT (5 mg/mL) was added to each well, and the mixed solutions were incubation for 4 h. The formazan product was dissolved by dimethyl sulfoxide (DMSO, 150 μL), and the optical density (O.D.) was read at 570 nm. The Inhibition Ratio was calculated by the following formula: Inhibition Ratio=(Anegative control−Asample)/(Anegative control−Ablank control)

B01092 = experiment: In vitro anticancer MTT experiment; settings: concentration 5 ug/ml, 48 h or 72 h, read-out: inhibition ratio B01092
Experimental: as §4

CRL-1435PC-3 = experiment: In vitro anticancer MTT experiment; settings: concentration 5 ug/ml, 48 h or 72 h, read-out: inhibition ratio CRL-1435PC-3
Experimental: as §4

CRL-1469PANC-1 = experiment: In vitro anticancer MTT experiment; settings: concentration 5 ug/ml, 48 h or 72 h, read-out: inhibition ratio CRL-1469PANC-1
Experimental: as §4

CRL-2233SNU-398 = experiment: In vitro anticancer MTT experiment; settings: concentration 5 ug/ml, 48 h or 72 h, read-out: inhibition ratio CRL-2233SNU-398
Experimental: as §4

HTB-131MDA-MB-453 = experiment: In vitro anticancer MTT experiment; settings: concentration 5 ug/ml, 48 h or 72 h, read-out: inhibition ratio HTB-131MDA-MB-453
Experimental: as §4

HTB-38HT-29 = experiment: In vitro anticancer MTT experiment; settings: concentration 5 ug/ml, 48 h or 72 h, read-out: inhibition ratio HTB-38HT-29
Experimental: as §4

HTB-94 = experiment: In vitro anticancer MTT experiment; settings: concentration 5 ug/ml, 48 h or 72 h, read-out: inhibition ratio HTB-94
Experimental: as §4

HTB-95637 = experiment: In vitro anticancer MTT experiment; settings: concentration 5 ug/ml, 48 h or 72 h, read-out: inhibition ratio HTB-95637
Experimental: as §4

L1210 = experiment: In vitro anticancer MTT experiment; settings: Mus musculus, concentration 5 ug/ml, 48 h or 72 h, read-out: inhibition ratio L1210
Experimental: as §4

L428 = experiment: In vitro anticancer MTT experiment; settings: Homo sapiens, L-428, concentration 5 ug/ml, 48 h or 72 h, read-out: inhibition ratio L428
Experimental: as §4

SGC7901 = experiment: In vitro anticancer MTT experiment; settings: Homo sapiens, SGC-7901, concentration 5 ug/ml, 48 h or 72 h, read-out: inhibition ratio SGC7901
Experimental: as §4

A375 = experiment: In vitro anticancer MTT experiment; settings: Homo sapiens, A-375, concentration 5 ug/ml, 48 h or 72 h, read-out: inhibition ratio A375
Experimental: as §4

FTC 133 = experiment: In vitro anticancer MTT experiment; settings: Homo sapiens, concentration 5 ug/ml, 48 h or 72 h, read-out: inhibition ratio FTC 133
Experimental: as §4

Cc1cc2c(cc1F)SC/C(=C\Br)C2=O [Compound 9, (Z)-3-(bromomethylene)-7-fluoro-6-methylthiochroman-4-one]
MIC (C. Krusei): 4 µg/mL (≈ 13.9 µM) | MIC (C. albicans): 64 µg/mL (≈ 223 µM) | MIC (C. glabrata): 64 µg/mL (≈ 223 µM) | MIC (C. neoformans): 1 µg/mL (≈ 3.48 µM) | MIC (C. parapsilosis): 8 µg/mL (≈ 27.9 µM) | MIC (C. tropicalis): 32 µg/mL (≈ 111 µM) | MIC (E. floccosum): 32 µg/mL (≈ 111 µM) | MIC [1]: 64 µg/mL (≈ 223 µM) | MIC (M. gypseum): 64 µg/mL (≈ 223 µM) | MIC (S. schenekn): 32 µg/mL (≈ 111 µM) | MIC (Setosphaeria turcica): 32 µg/mL (≈ 111 µM) | MIC (Terchoderma): 64 µg/mL (≈ 223 µM) | inhibition at 5 µg/mL (AS24391): 57% | inhibition at 5 µg/mL (B01092): 39.4% | inhibition at 5 µg/mL (CRL-1435PC-3): 36% | inhibition at 5 µg/mL (CRL-1469PANC-1): 60.1% | inhibition at 5 µg/mL (CRL-2233SNU-398): 45.6% | inhibition at 5 µg/mL (HTB-131MDA-MB-453): 56.7% | inhibition at 5 µg/mL (HTB-38HT-29): 74.6% | inhibition at 5 µg/mL (HTB-94): 65.6% | inhibition at 5 µg/mL (HTB-95637): 55.8% | inhibition at 5 µg/mL (L1210): 89.5% | inhibition at 5 µg/mL (L428): 50.1% | inhibition at 5 µg/mL (SGC7901): 50.4%

O=C1/C(=C/Cl)CSc2ncccc21 [Compound 18, (Z)-3-(chloromethylene)-2H-thiopyrano[2,3-b]pyridin-4(3H)-one]
MIC (C. Krusei): 32 µg/mL (≈ 151 µM) | MIC (C. albicans): 8 µg/mL (≈ 37.8 µM) | MIC (C. glabrata): 16 µg/mL (≈ 75.6 µM) | MIC (C. neoformans): 4 µg/mL (≈ 18.9 µM) | MIC (C. parapsilosis): 8 µg/mL (≈ 37.8 µM) | MIC (C. tropicalis): 16 µg/mL (≈ 75.6 µM) | MIC (E. floccosum): 32 µg/mL (≈ 151 µM) | MIC [1]: 16 µg/mL (≈ 75.6 µM) | MIC (M. gypseum): 32 µg/mL (≈ 151 µM) | MIC (S. schenekn): 4 µg/mL (≈ 18.9 µM) | MIC (Setosphaeria turcica): 8 µg/mL (≈ 37.8 µM) | MIC (Terchoderma): 16 µg/mL (≈ 75.6 µM) | inhibition at 5 µg/mL (A375): 67.8% | inhibition at 5 µg/mL (AS24391): 63.5% | inhibition at 5 µg/mL (B01092): 67.7% | inhibition at 5 µg/mL (CRL-1435PC-3): 41% | inhibition at 5 µg/mL (CRL-1469PANC-1): 56.4% | inhibition at 5 µg/mL (CRL-2233SNU-398): 46.6% | inhibition at 5 µg/mL (FTC 133): 55% | inhibition at 5 µg/mL (HTB-131MDA-MB-453): 77.1% | inhibition at 5 µg/mL (HTB-38HT-29): 63.5% | inhibition at 5 µg/mL (HTB-94): 49% | inhibition at 5 µg/mL (HTB-95637): 56.4% | inhibition at 5 µg/mL (L1210): 76.8% | inhibition at 5 µg/mL (SGC7901): 47.5%

Cc1ccc2c(c1)C(Cl)/C(=C/Cl)CS2 (stereo not shown) [Compound 28, (E)-4-chloro-3-(chloromethylene)-6-methylthiochroman]
MIC (C. albicans): 32 µg/mL (≈ 131 µM) | MIC (C. glabrata): 32 µg/mL (≈ 131 µM) | MIC (C. neoformans): 8 µg/mL (≈ 32.6 µM) | MIC (C. parapsilosis): 32 µg/mL (≈ 131 µM) | MIC (C. tropicalis): 16 µg/mL (≈ 65.3 µM) | MIC (E. floccosum): 4 µg/mL (≈ 16.3 µM) | MIC [1]: 64 µg/mL (≈ 261 µM) | MIC (M. gypseum): 16 µg/mL (≈ 65.3 µM) | MIC (S. schenekn): 16 µg/mL (≈ 65.3 µM) | MIC (Terchoderma): 16 µg/mL (≈ 65.3 µM) | inhibition at 5 µg/mL (A375): 52.7% | inhibition at 5 µg/mL (AS24391): 72.3% | inhibition at 5 µg/mL (B01092): 46.2% | inhibition at 5 µg/mL (CRL-1435PC-3): 65.2% | inhibition at 5 µg/mL (CRL-1469PANC-1): 75.3% | inhibition at 5 µg/mL (CRL-2233SNU-398): 56.3% | inhibition at 5 µg/mL (FTC 133): 72.5% | inhibition at 5 µg/mL (HTB-131MDA-MB-453): 56.8% | inhibition at 5 µg/mL (HTB-38HT-29): 72.4% | inhibition at 5 µg/mL (HTB-94): 62.2% | inhibition at 5 µg/mL (HTB-95637): 48.2% | inhibition at 5 µg/mL (L1210): 79.4% | inhibition at 5 µg/mL (L428): 66.7% | inhibition at 5 µg/mL (SGC7901): 63.3%
